Test results published in US12187684B2, “Benzimidazole derivatives as modulators of retinoid-related orphan receptor gamma (RORγ) and pharmaceutical use thereof” (Jiangsu Hengrui Medicine Co., Ltd., priority 2018, dated 2025).

Target: T1, RORγ LBD-GST tagged (Homo sapiens, UniProt P51449)
T1 construct: RORγ LBD-GST tagged (Cat No. RORC-114H, Creative Biomart); purchased Creative Biomart RORC-114H
T1 sequence (P51449 269-508 limits assumed): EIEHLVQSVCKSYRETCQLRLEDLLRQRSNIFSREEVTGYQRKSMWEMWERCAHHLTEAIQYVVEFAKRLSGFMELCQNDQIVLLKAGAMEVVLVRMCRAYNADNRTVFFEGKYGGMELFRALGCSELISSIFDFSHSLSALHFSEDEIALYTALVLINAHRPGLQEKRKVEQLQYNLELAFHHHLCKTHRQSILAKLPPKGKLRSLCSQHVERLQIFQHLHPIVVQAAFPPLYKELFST
Test: LanthaScreen TR-FRET RORγ coactivator assay
Assay type: biochemical
Conditions: Fluorescein-D22 coactivator peptide, 1 hour room temperature
Source text: LanthaScreen TR-FRET Retinoid-Related Orphan Receptor Gamma (RORγ) Coactivator Assay Materials and Reagents • 1. […] Fluorescein-D22 coactivator peptide (Cat No. PV4386, Invitrogen) • 3. LanthaScreen™ Tb anti-GST antibody (Cat No. PV3550, Invitrogen) • 4. TR-FRET coregulatory buffer D (Cat No, PV4420, Invitrogen) • 5. DTT (Cat No. P2325, Fisher) • 6. […] Tecan Infinite M1000 plate reader (Tecan) Experimental Procedure Prepare Complete TR-FRET Coregulator Buffer D by adding 1 M DTT to TR-FRET Coregulator Buffer D to the final concentration of 5 mM DTT. Make compound dilution in Complete TR-FRET Coregulator Buffer D. Highest dose is 3 μM, 7-folder dilution for total 7 doses. Add 10 μL to each well of a 384-well plate. For the negative and positive controls, add 10 μL of Complete TR-FRET Coregulator Buffer D. Prepare RORγ LBD using Complete TR-FRET Coregulator Buffer D. The final concentration of RORγ LBD is 25 ng/reaction. Add 5 μL RORγ LBD to all the wells of the 384-well assay plate except negative wells which adding 5 μL Complete TR-FRET Coregulator Buffer D. Prepare a solution containing 0.6 μM Fluorescein-D22 and 8 nM Tb anti-GST antibody using Complete TR-FRET Coregulator Buffer D. Add 5 μL to all wells of the 384-well assay plate. Briefly and gently mix the 384-well plate on a plate shaker and incubate at room temperature protected from light for 1 hour. The plate may be sealed with a cover to minimize evaporation. Read the plate at wavelengths of 520 nm and 495 nm on Tecan Infinite M1000. IC50 values were calculated using GraphPad Prism by plotting the logarithm of compounds concentration versus percent inhibition.

IC50 [µM] | Structure (SMILES)
0.18 | CCS(=O)(=O)c1ccc(C(O)c2nc3c(F)c(-c4ccccc4OC)c(F)cc3[nH]2)cc1 (stereo not shown) [Example 113, (4,6-difluoro-5-(2-methoxyphenyl)-1H-benzo[d]imidazol-2-yl)(4-(ethylsulfonyl)phenyl)methanol]
0.123 | N#Cc1ccccc1-c1c(Cl)cc2[nH]c(C(CO)c3ccc(S(=O)(=O)CC4CC4)cc3)nc2c1Cl (stereo not shown) [Example 96, 2-(4,6-dichloro-2-(1-(4-((cyclopropylmethyl)sulfonyl)phenyl)-2-hydroxyethyl)-1H-benzo[d]imidazol-5-yl)benzonitrile]
0.055 | CC(C)S(=O)(=O)c1ccc(C(CO)c2nc3c(Cl)c(-c4ccccc4C(F)(F)F)c(Cl)cc3[nH]2)cc1 (stereo not shown) [Example 107]
0.966 | CCS(=O)(=O)c1ccc(C(O)c2nc3cc(-c4ccccc4OC(F)(F)F)c(F)cc3[nH]2)cc1 (stereo not shown) [Example 121, (4-(ethylsulfonyl)phenyl)(6-fluoro-5-(2-(trifluoromethoxy)phenyl)-1H-benzo[d]imidazol-2-yl)methanol]
0.306 | CCS(=O)(=O)c1ccc(C(O)c2nc3c(C)c(-c4ccccc4OC)c(C)cc3[nH]2)cc1 (stereo not shown) [Example 118, (4-(ethylsulfonyl)phenyl)(5-(2-methoxyphenyl)-4,6-dimethyl-1H-benzo[d]imidazol-2-yl)methanol]
0.003 | CC(C)S(=O)(=O)c1ccc(C(O)c2nc3c(Cl)c(-c4ccccc4OC(F)(F)F)c(Cl)cc3[nH]2)cc1 (stereo not shown) [Example 106, (4-((iso-propyl)sulfonyl)phenyl)(4,6-dichloro-5-(2-(trifluoromethoxy)phenyl)-1H-benzo[d]imidazol-2-yl)methanol]
0.004 | O=S(=O)(CC1CC1)c1ccc(Cc2nc3c(Cl)c(-c4ccccc4OC(F)(F)F)c(Cl)cc3[nH]2)c(Cl)c1 [Example 90, 4,6-dichloro-2-(2-chloro-4-((cyclopropylmethyl)sulfonyl)benzyl)-5-(2-(trifluoromethoxy)phenyl)-1H-benzo[d]imidazole]
0.321 | CCS(=O)(=O)c1ccc(C(CO)c2nc3cc(-c4ccccc4OC(F)(F)F)c(F)cc3[nH]2)cc1 (stereo not shown) [Example 120, 2-(4-(ethylsulfonyl)phenyl)-2-(6-fluoro-5-(2-(trifluoromethoxy)phenyl)-1H-benzo[d]imidazol-2-yl)ethanol]

The next lines start with the compound.

Structure (SMILES) | IC50 [µM]
COCCS(=O)(=O)c1ccc(Cc2nc3c(Cl)c(-c4ccccc4OC(F)(F)F)c(Cl)cc3[nH]2)cc1 [Example 53, 4,6-dichloro-2-(4-((2-methoxyethyl)sulfonyl)benzyl)-5-(2-(trifluoromethoxy)phenyl)-1H-benzo[d]imidazole] | 0.575
CCS(=O)(=O)c1ccc(Cc2nc3c(Cl)c(-c4ccccc4OC(F)F)c(Cl)cc3[nH]2)cc1 [Example 28, 4,6-dichloro-5-(2-(difluoromethoxy)phenyl)-2-(4-(ethylsulfonyl)benzyl)-1H-benzo[d]imidazole] | 0.045
CCS(=O)(=O)c1ccc(Cc2nc3c(Cl)c(-c4ccccc4OC(F)F)c(Cl)cc3[nH]2)c(F)c1 [Example 83, 4,6-dichloro-5-(2-(difluoromethoxy)phenyl)-2-(4-(ethylsulfonyl)-2-fluorobenzyl)-1H-benzo[d]imidazole] | 0.065
CCS(=O)(=O)c1ccc(Cc2nc3c(Cl)c(-c4ccccc4N(C)C)c(Cl)cc3[nH]2)cc1 [Example 27, 2-(4,6-dichloro-2-(4-(ethylsulfonyl)benzyl)-1H-benzo[d]imidazol-5-yl)-N,N-dimethylaniline] | 0.489
CCS(=O)(=O)c1ccc(Cc2nc3c(Cl)c(-c4ccccc4OC(F)(F)F)c(Cl)cc3[nH]2)c(F)c1 [Example 76, 4,6-dichloro-2-(4-(ethylsulfonyl)-2-fluorobenzyl)-5-(2-(trifluoromethoxy)phenyl)-1H-benzo[d]imidazole] | 0.387
CCCS(=O)(=O)c1ccc(C(CO)c2nc3c(Cl)c(-c4ccccc4OC(F)(F)F)c(Cl)cc3[nH]2)cc1 (stereo not shown) [Example 51, 2-(4,6-dichloro-5-(2-(trifluoromethoxy)phenyl)-1H-benzo[d]imidazol-2-yl)-2-(4-(propylsulfonyl)phenyl)ethanol] | 0.646
CCS(=O)(=O)c1ccc(C(CCO)c2nc3c(Cl)c(N4CCC(F)(F)CC4)c(Cl)cc3[nH]2)cc1 (single isomer, unassigned) [3-(4,6-dichloro-5-(4,4-difluoropiperidin-1-yl)-1H-benzo[d]imidazol-2-yl)-3-(4-(ethylsulfonyl)phenyl)propan-1-ol] | 0.093
CCS(=O)(=O)c1ccc(C(CO)c2nc3c(Cl)c(-c4ccccc4OC(F)(F)F)c(Cl)cc3[nH]2)c(Cl)c1 (stereo not shown) [Example 87, 2-(2-chloro-4-(ethylsulfonyl)phenyl)-2-(4,6-dichloro-5-(2-(trifluoromethoxy)phenyl)-1H-benzo[d]imidazol-2-yl)ethanol] | 0.024
CCS(=O)(=O)c1ccc(C(O)c2nc3c(Cl)c(-c4ccccc4F)c(Cl)cc3[nH]2)cc1 (stereo not shown) [Example 12, (4,6-dichloro-5-(2-fluorophenyl)-1H-benzo[d]imidazol-2-yl)(4-(ethylsulfonyl)phenyl)methanol] | 0.106
CCS(=O)(=O)c1ccc(C(O)c2nc3c(Cl)c(-c4cc(Cl)ccc4Cl)c(Cl)cc3[nH]2)cc1 (stereo not shown) [Example 15, (4,6-dichloro-5-(2,5-dichlorophenyl)-1H-benzo[d]imidazol-2-yl)(4-(ethylsulfonyl)phenyl)methanol] | 0.787
CCS(=O)(=O)c1ccc(C(NC(C)=O)c2nc3c(Cl)c(-c4ccccc4OC(F)F)c(Cl)cc3[nH]2)cc1 (stereo not shown) [Example 40, N-((4,6-dichloro-5-(2-(difluoromethoxy)phenyl)-1H-benzo[d]imidazol-2-yl)(4-(ethylsulfonyl)phenyl)methyl)acetamide] | 0.083
O=S(=O)(CC1CC1)c1ccc(C(CO)c2nc3c(Cl)c(-c4ccccc4F)c(Cl)cc3[nH]2)cc1 (stereo not shown) [Example 74, 2-(4-((cyclopropylmethyl)sulfonyl)phenyl)-2-(4,6-dichloro-5-(2-fluorophenyl)-1H-benzo[d]imidazol-2-yl)ethanol] | 0.187
O=S(=O)(CCF)c1ccc(Cc2nc3c(Cl)c(-c4ccccc4OC(F)(F)F)c(Cl)cc3[nH]2)cc1 [Example 61, 4,6-dichloro-2-(4-((2-fluoroethyl)sulfonyl)benzyl)-5-(2-(trifluoromethoxy)phenyl)-1H-benzo[d]imidazole] | 0.509
CCS(=O)(=O)c1ccc(Cc2nc3c(Cl)c(-c4ccsc4)c(Cl)cc3[nH]2)cc1 [Example 24, 4,6-dichloro-2-(4-(ethylsulfonyl)benzyl)-5-(thiophen-3-yl)-1H-benzo[d]imidazole] | 0.701
CCS(=O)(=O)c1ccc(C(O)c2nc3c(Cl)c(-c4ccccc4OC(C)C)c(Cl)cc3[nH]2)cc1 (stereo not shown) [Example 10, (4,6-dichloro-5-(2-isopropoxyphenyl)-1H-benzo[d]imidazol-2-yl)(4-(ethylsulfonyl)phenyl)methanol] | 0.056
NC(=O)CC(c1ccc(S(=O)(=O)CC2CC2)cc1)c1nc2cc(-c3ccccc3OC(F)F)c(Cl)cc2[nH]1 (single isomer, unassigned) [3-(6-chloro-5-(2-(difluoromethoxy)phenyl)-1H-benzo[d]imidazol-2-yl)-3-(4-((cyclopropylmethyl)sulfonyl)phenyl)propanamide] | 0.21
CCS(=O)(=O)c1ccc(C(CO)c2nc3c(Cl)c(-c4ccsc4)c(Cl)cc3[nH]2)cc1 (stereo not shown) [Example 25, 2-(4,6-dichloro-5-(thiophen-3-yl)-1H-benzo[d]imidazol-2-yl)-2-(4-(ethylsulfonyl)phenyl)ethanol] | 0.789
CC(C)Oc1ccccc1-c1cc2nc(C(CCO)c3ccc(S(=O)(=O)CC4CC4)cc3)[nH]c2cc1Cl (single isomer, unassigned) [3-(6-chloro-5-(2-isopropoxyphenyl)-1H-benzo[d]imidazol-2-yl)-3-(4-((cyclopropylmethyl)sulfonyl)phenyl)propan-1-ol] | 0.787
O=S(=O)(CC1CC1)c1ccc(C(O)c2nc3c(Cl)c(-c4ccccc4C(F)(F)F)c(Cl)cc3[nH]2)cc1 (stereo not shown) [Example 71, (4-((cyclopropylmethyl)sulfonyl)phenyl)(4,6-dichloro-5-(2-(trifluoromethyl)phenyl)-1H-benzo[d]imidazol-2-yl)methanol] | 0.004
CCS(=O)(=O)c1ccc(C(CO)c2nc3c(Cl)c(-c4ccccc4C#N)c(Cl)cc3[nH]2)cc1 (stereo not shown) [Example 22, 2-(4,6-dichloro-2-(1-(4-(ethylsulfonyl)phenyl)-2-hydroxyethyl)-1H-benzo[d]imidazol-5-yl)benzonitrile] | 0.219
